In brackets after ≈: the same amount, converted by molar mass. Numbered stars: 1 amine (or outer) side, 2 acyl side, 3 side chain; on linkers, the order of the positions; unused ones are H or OH. Bridge positions count the residues as written; N and C are the ends. Square brackets hold non-standard residues; d marks the D form. Peptide text beside a SMILES is read from it. * marks the point of attachment. Orn(4R-OH,5R-OH) = O=C([C@H](C[C@@H](O)[C@@H](O)N[*:3])N[*:1])[*:2]; hTyr(3S-OH,4S-OH) = N[C@H](C(=O)O)[C@H](O)[C@@H](O)c1ccc(O)cc1; Pro(3S-OH,4S-Me) = C[C@H]1CN[C@H](C(=O)O)[C@H]1O; Benzoyl(4-octyloxy) = CCCCCCCCOc1ccc(C(=O)*)cc1; Hyp = O=C(O)[C@@H]1C[C@@H](O)CN1
Legend:
fungal organisms = assay: Microtiter broth dilution assay of antifungal activity (MIC) in the presence and absence of 0.8M sorbitol; type: cell-based; details: for MIC: 48 h, read-out: Broth Dilution Assay MIC at 2 day growth, w/o sorbitol; for Broth Dilution Assay MIC at 2 day growth, with sorbitol: with 0.8M sorbitol; for Broth Dilution Assay MIC at 2 day growth, with sorbitol / Broth Dilution Assay MIC at 2 day growth, w/o sorbitol: final concentration of cells 2 × 10^5 organisms/ml; for Broth Dilution Assay MIC at 2 day growth, w/o sorbitol: without sorbitol
Experimental: Minimal inhibitory concentrations (MICs) of corynecandin related compounds in the microtiter broth dilution in the presence and absence of 0.8M sorbitol assay were determined by a broth dilution assay described by Frost, D., Brandt, K., Cugier, D., and Goldman, R. in J. Antibiotics 48: 306-310 (1995), which is incorporated herein by reference.
^a Assay conducted as described in Frost et al., ibid, except final
concentration of cells was 2 × 10^5 organisms/ml.

(1,3)-β-Glucan Synthase = target: T1, (1,3)-β-Glucan Synthase (Candida albicans, UniProt A0A1D8PCT0); assay: In vitro inhibition of (1,3)-β-glucan synthase activity; type: biochemical
T1 construct: integral plasma membrane protein
Source text: The fungal cell wall serves as a protective barrier and is essential for viability in a hypotonic environment. (1,3)-β-Glucan is a component of the Candida albicans cell wall, and the enzyme that biosynthesizes this polymer, glucan synthase, is not present in higher eukaryotes. (Glucan synthase is an integral plasma membrane protein that catalyzes polymerization of uridine diphosphate-glucose (UDP-Glc) into β-glucan.) Accordingly, glucan synthase represents an ideal target for the development of antifungal agents.
The assay was conducted as described by Frost, D., Brandt, K. Capobioanco, and Goldman, R., Microbiology 140: 2239-2246 (1994) which is incorporated herein by reference.

T1 sequence (A0A1D8PCT0 1-1897): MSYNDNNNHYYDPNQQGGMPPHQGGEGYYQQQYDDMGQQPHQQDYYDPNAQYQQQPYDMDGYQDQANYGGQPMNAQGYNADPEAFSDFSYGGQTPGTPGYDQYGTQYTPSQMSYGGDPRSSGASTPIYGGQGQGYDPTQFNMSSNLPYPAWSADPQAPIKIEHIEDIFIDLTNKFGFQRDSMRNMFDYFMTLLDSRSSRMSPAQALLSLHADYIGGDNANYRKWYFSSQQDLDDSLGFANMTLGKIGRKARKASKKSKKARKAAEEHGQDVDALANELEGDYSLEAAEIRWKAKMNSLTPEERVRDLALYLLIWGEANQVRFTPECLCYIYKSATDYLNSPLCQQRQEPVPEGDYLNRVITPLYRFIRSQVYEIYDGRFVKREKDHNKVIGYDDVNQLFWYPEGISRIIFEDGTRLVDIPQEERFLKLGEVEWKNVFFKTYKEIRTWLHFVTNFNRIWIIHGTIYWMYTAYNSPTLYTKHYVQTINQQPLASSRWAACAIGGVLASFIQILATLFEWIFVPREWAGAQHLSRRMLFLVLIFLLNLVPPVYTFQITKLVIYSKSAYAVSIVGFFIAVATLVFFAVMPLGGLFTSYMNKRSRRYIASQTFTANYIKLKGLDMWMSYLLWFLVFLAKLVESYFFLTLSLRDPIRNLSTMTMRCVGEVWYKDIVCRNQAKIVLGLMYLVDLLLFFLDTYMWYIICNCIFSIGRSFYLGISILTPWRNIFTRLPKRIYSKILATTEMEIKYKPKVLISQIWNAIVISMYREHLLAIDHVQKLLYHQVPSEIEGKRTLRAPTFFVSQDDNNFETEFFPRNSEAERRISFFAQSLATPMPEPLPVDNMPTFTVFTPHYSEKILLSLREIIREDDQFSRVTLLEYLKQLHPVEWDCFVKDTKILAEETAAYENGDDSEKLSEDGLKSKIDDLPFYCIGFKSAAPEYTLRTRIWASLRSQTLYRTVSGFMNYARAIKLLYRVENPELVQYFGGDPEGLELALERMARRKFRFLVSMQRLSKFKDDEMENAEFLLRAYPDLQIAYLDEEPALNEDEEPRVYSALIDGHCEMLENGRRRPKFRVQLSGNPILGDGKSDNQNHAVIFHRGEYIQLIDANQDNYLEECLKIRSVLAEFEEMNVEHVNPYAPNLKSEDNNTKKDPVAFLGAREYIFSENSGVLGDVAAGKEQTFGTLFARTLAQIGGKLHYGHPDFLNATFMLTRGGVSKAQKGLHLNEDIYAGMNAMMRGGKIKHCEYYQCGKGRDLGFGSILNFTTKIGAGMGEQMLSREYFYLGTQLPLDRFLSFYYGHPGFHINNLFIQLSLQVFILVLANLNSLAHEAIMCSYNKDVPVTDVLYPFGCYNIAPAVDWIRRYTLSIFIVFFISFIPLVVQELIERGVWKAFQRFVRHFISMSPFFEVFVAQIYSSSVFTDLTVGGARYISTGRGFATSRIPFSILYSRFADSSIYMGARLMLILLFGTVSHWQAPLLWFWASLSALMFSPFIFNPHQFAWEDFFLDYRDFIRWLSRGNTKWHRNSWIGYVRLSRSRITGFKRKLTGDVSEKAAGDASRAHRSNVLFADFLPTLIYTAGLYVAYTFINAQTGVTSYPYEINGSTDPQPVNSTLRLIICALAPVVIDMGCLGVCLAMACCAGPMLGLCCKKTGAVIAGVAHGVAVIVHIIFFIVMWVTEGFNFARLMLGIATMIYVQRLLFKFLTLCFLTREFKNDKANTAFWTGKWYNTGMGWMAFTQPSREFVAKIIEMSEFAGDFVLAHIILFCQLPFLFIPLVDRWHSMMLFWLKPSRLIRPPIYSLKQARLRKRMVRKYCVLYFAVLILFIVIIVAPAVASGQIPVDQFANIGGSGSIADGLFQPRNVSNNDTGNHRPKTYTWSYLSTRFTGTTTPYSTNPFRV
T1 sequence (O42825 1-195 partner): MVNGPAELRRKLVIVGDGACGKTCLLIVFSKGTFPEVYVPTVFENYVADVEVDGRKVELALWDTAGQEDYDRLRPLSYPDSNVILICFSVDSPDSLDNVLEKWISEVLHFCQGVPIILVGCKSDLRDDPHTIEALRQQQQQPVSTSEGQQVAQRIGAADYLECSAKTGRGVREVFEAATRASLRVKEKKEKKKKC

Work on `C[C@@H]1[C@H](O)[C@@H](C)/C=C/C=C/C=C/C=C/C=C/C=C/C=C/[C@H](O[C@@H]2O[C@H](C)[C@@H](O)[C@H](N)[C@@H]2O)C[C@@H]2O[C@](O)(C[C@@H](O)C[C@@H](O)[C@H](O)CC[C@@H](O)C[C@@H](O)CC(=O)O[C@H]1C)C[C@H](O)[C@H]2C(=O)O` [Amphotericin B] yielded an MIC (fungal organisms) of 480 µg/mL (≈ 519 µM).
`CCCCCCCCOc1ccc(C(=O)N[C@H]2C[C@@H](O)[C@@H](O)NC(=O)[C@@H]3[C@@H](O)[C@@H](C)CN3C(=O)[C@H]([C@@H](C)O)NC(=O)[C@H]([C@H](O)[C@@H](O)c3ccc(O)cc3)NC(=O)[C@@H]3C[C@@H](O)CN3C(=O)[C@H]([C@@H](C)O)NC2=O)cc1` [Cilofungin] ({Benzoyl(4-octyloxy)}-[Orn(4R-OH,5R-OH)]T[Hyp][hTyr(3S-OH,4S-OH)]T[Pro(3S-OH,4S-Me)]; lactam 1-C) showed an MIC (fungal organisms) of 980 µg/mL (≈ 951 µM).
For `CCCCC/C=C\C=C\C(=O)OC[C@H]1O[C@@H](O[C@H]2[C@H](OC(=O)/C(C)=C/C=C/CC(O)C(C)CC)[C@@H](O)[C@H](c3c(O)cc(O)cc3CO)O[C@@H]2CO)[C@H](O)[C@@H](O)[C@H]1O` (stereo partly shown) [Corynecandin], the MIC (fungal organisms) was 980 µg/mL (≈ 1210 µM) and the “Rescue of cell growth by sorbitol” value (fungal organisms; cells treated with compound, sorbitol present) was “Sorbitol could rescue the growth of cells”.
For `CCC(O)/C=C/C=C/C=C/C(=O)OC[C@H]1O[C@@H](O[C@H]2[C@H](OC(=O)/C=C/C=C/CC(O)/C(C)=C/C=C/CCC(C)CC)[C@@H](O)[C@@]3(OCc4cc(O)cc(O)c43)O[C@@H]2CO)[C@H](O)[C@@H](O)[C@H]1O` (stereo partly shown) [Papulacandin B], the “Broth Dilution Assay MIC at 2 day growth, with sorbitol” value (fungal organisms) was over 250000 µg/mL, the “Broth Dilution Assay MIC at 2 day growth, w/o sorbitol” value (fungal organisms) was 1960 µg/mL and the “In Vitro Inhibition of (1,3)-β-Glucan Synthase Activity IC50” value ((1,3)-β-Glucan Synthase) was 1.9 µg/mL.
Fusacandin was tested, and the “Broth Dilution Assay MIC at 2 day growth, with sorbitol” value (fungal organisms) was over 250000 µg/mL, the “Broth Dilution Assay MIC at 2 day growth, w/o sorbitol” value (fungal organisms) was 1960 µg/mL and the “In Vitro Inhibition of (1,3)-β-Glucan Synthase Activity IC50” value ((1,3)-β-Glucan Synthase) was 25.0 µg/mL.
